According to patent publication US9278081B2, “Extracts from Eucalyptus camaldulensis for the treatment of hyperglycemia and hypertension” (The University of the West Indies, priority 2012, dated 2016):
Where “and” joins values, the source holds several entries; their conditions need not be identical. Equal values may be shown once. Entries after “also recorded” stand apart in the source; their conditions may differ. Each block holds one compound with its values, some of them ahead of it.

Tests used:
rats [1] = assay: Haemodynamic parameters (blood pressure and heart rate), non-invasive CODA machine; assay type: in vivo; settings: for effect on mean arterial blood pressure (in words): vs DMSO; for effect on systolic blood pressure (in words): vs DMSO and captopril
Source text: A non-invasive method was used to measure the blood pressure and heart rate of the rats using the CODA machine from Kent Scientific Corporation. The rats were placed in a restraint (rat holder), to reduce agitation, and then placed on a warming pad of the machine (to reduce anxiety). The occlusion and volume pressure recording cuffs (O-cuff and VPR-cuff respectively) were placed onto the tail of the animal in that order respectively, in order to record the readings. The O-cuff terminates blood flow to the tail and then dilates slowly allowing for the physiological readings to be obtained from the returning blood flow, which is determined by the VPR sensor. The VPR-cuff is then used to measure the arterial pulsations as blood returns to the tail and it begins to swell. As the tail begins to swell the systolic blood pressure is measured, while the diastolic blood pressure is calculated when swelling stops.
The rats were trained within the restrain for three to four days prior to the measurements in order to reduce errors and an additional acclimatization period was done to allow the rats to relax prior to the basal blood pressure readings. […] The systolic and diastolic pressures, mean arterial pressure and the heart rate per minute was measured and about 20-25 readings were recorded and timed for approximately 30 minute including an allowance for acclimatization. […] Non-invasive blood pressure Measurement in Mice. […] Humana Press, which is herein incorporated by reference in its entirety.
A non-invasive method was used to measure the blood pressure and heart rate of the rats using the CODA-6-non-invasive machine from Kent Scientific Corporation. The rats were placed in a restraint (rat holder), to reduce agitation, which was then placed on a warming pad of the machine (to reduce anxiety). The occlusion and volume pressure recording cuffs (O-cuff and VPR-cuff respectively) were placed on to the tail of the animal in that order respectively, in order to record the readings. The O-cuff terminates blood flow to the tail and then dilates slowly allowing for the physiological readings to be obtained from the returning blood flow which is determined by the VPR sensor. The VPR-cuff then measured the arterial pulsations as blood returns to the tail and begins to swell. As the tail begins to swell the systolic blood pressure is measured, while the diastolic blood pressure is calculated when swelling stops.
The systolic and diastolic blood pressure, mean arterial pressure and the heart rate per minute was measured and about 20-25 readings were recorded and timed for approximately 30 minutes including acclimatization (FIGS. 17-28). […] Non-invasive blood pressure Measurement in Mice. […] Humana Press, which is herein incorporated by reference in its entirety.

[2] = system: normoglycaemic Sprague-Dawley rats; assay: Oral Glucose Tolerance Test (OGTT), samples administered intravenously; assay type: in vivo; settings: for effect on blood glucose concentration (in words): IV OGTT vs DMSO control and/or metformin; for Hypoglycaemic effect compared with control: combinations of oleic:palmitic acids, IV OGTT vs DMSO
Protocol: Crude hexane, ethyl acetate, and methanol extracts (50 mg/kg BW) were administered intravenously to normoglycaemic Sprague-Dawley rats. The Oral Glucose Tolerance Test (OGTT) was then carried out using the Accu-Check Advantage II glucose kit to examine their effect on blood glucose concentration. […] A comparison was carried out using metformin (25 mg/kg BW).
Crude hexane, ethyl acetate, and methanol extracts (50 mg/kg BW) were administered intravenously to normoglycaemic Sprague-Dawley rats. The Oral Glucose Tolerance Test (OGTT) was then carried out using the Accu-Check Advantage II glucose kit to examine their effect on blood glucose concentration.
Crude hexane, ethyl acetate, and methanol extracts (50 mg/kg BW) were administered intravenously to normoglycaemic Sprague-Dawley rats.
The dosage of the extracted fr1dbe (30 mg/kg BW) and the glucose loads (1.75 g/kg BW were administered to the rats intravenously and orally, respectively. The extract was administered intravenously in order to reduce the amounts of sample that were used for the bioassays. The volume of the negative control/carrier agent (DMSO) used was approximately 0.3 mL.
In order to determine the efficacy of the isolated compounds, a known oral hypoglycaemic drug, metformin was used to do a comparison. Metformin was obtained from Sigma-Aldrich (Cat. No. d15, 095-9) and OGTTs were done via intravenous (FIGS. 7-13) and oral administration (FIGS. 14-16).

[3] = system: normoglycaemic Sprague-Dawley rats; assay: Oral Glucose Tolerance Test (OGTT), samples administered orally (gavage); assay type: in vivo; settings: 900 mg/kg BW orally vs water
Protocol: The hypoglycaemic principles of E. camaldulensis were also administered orally. Preliminary OGTT experiments at 200 and 500 mg/kg BW were done, and as a result the dosage was increased to 700 and 900 mg/kg BW. The glucose tolerance curves (GTC) were obtained similarly to the OGTT done via intravenous administration, in that the compound was administered after the fasting blood sample was obtained, however via a oral gavage (FIGS. 14-16).
A comparison was done of the oral administration of the fatty acids with the respective oil on the blood glucose concentration by using the OGTT done in order to deduce their effect. Oleic and palmitic acids are major constituents of olive oil and coconut oil respectively. As such, comparisons were made after OGTTs were carried out to determine the effect of olive oil, coconut oil and the combined product (2.3 olive oil:1 coconut oil), on blood glucose concentration.
An analysis of glucose tolerance curves to compare olive oil, FR2DBS (oleic acid) and the combined oil (FR2DBW; 2.3 olive oil:1 coconut oil) at 900 mg/kg BW vs the control (water) all administered orally, was conducted. […] See also FIG. 29.

rats [4] = assay: Post-prandial blood insulin level, Mercodia ELISA; assay type: in vivo; settings: 30 mg/kg BW IV in DMSO
Protocol: This was carried out using the Mercodia ELISA Diagnostic kit in order to deduce the plasma insulin and glucagon levels respectively. These levels were used to determine the effect of the compound fr1dbe, on glucose homeostasis, when compared with a positive methformin and a DMSO negative control.
The samples were administered intravenously and orally at their respective dosages. After 15 minutes 75 mg/kg BW of sodium pentabarbitol was administered to the rats via an intraperitoneal injection. Blood samples were then obtained from the renal artery of the rats and collected in the (red) vacutainer for the serum sample. The samples were then centrifuged at 3,000 r.p.m. for 10 minutes and stored at −20° C. until used.
The Mercodia ELISA is a direct technique utilizing two monoclonal antibodies of the insulin molecule, one of which binds to the microtitre well, while the other binds to the insulin within the sample. When the unbound antibody is removed, a reaction with 3,3′,5,5′-tetramethylbenzidine aids in detection and spectophotometric analysis after the reaction is stopped.
The enzyme conjugate solution and wash buffer solution were prepared prior to the experiment. 10 μL of the calibrators, samples and controls were pipetted into the microtitre wells in duplicate. […] The ELISA plate was read immediately at an optical density at 450 nm and the results calculated. […]

[5] = general description of eicosane; cited from earlier work
Solubility = assay type: physicochemical
[6] = 50 mg/kg BW, 10 minute interval
[7] = 50 mg/kg BW, 20 minute interval
[8] = 30 mg/kg BW intravenously, 90 minute interval (glycaemic peak)
[9] = 30 mg/kg BW, 10 minute interval
[10] = 30 mg/kg BW, 15 minute interval
[11] = 30 mg/kg BW, 20 minute interval

SMILES: CCCCCCCCCCCCCCCC(=O)O [FR1DBY, palmitic acid]
- diastolic blood pressure (DBP) (rats [1]; [6]): 81.93±1.74 mmHg
- heart rate (rats [1]; [6]): 372.4 ± 3.07 beats/min
- mean arterial pressure (MAP) (rats [1]; [6]): 95.67±1.77 mmHg
- systolic blood pressure (SBP) (rats [1]; [6]): 123.42±1.27 mmHg
- systolic blood pressure (SBP) (rats [1]; 50 mg/kg BW, 15 minute interval): 139.0±3.5 mmHg
- diastolic blood pressure (DBP) (rats [1]; [7]): 93.79±3.14 mmHg
- mean arterial pressure (MAP) (rats [1]; [7]): 104.23±3.08 mmHg
- blood glucose concentration [2, 8]: 5.4 ± 0.163 mmol/L
- difference in blood glucose from the control ([2]; 50 mg/kg BW IV, 90 minute interval, vs DMSO): 1.06 mmol/L
- blood glucose concentration ([2]; 50 mg/kg BW intravenously, 90 minutes interval): 5.26 ± 0.183 mmol/L
- effect on blood glucose concentration (in words) [2]: same effect as Metformin
- effect on blood glucose concentration (in words) ([2]; listed as commercially available palmitic acid): able to significantly lower the blood glucose concentration
- more effective dosage (hypoglycaemic effect) ([2]; IV OGTT, dose comparison): 50 mg/kg BW
- Hypoglycaemic effect compared with control [2]: Significant
- effect on blood glucose level (in words) [3]: able to significantly lower the area under the glucose tolerance curve; also recorded: able to lower the blood glucose concentration

SMILES: CN(C)C(=N)N=C(N)N [metformin, reference compound]
- decrease in the blood sugar level compared with the control ([2]; 25 mg/kg BW IV, 90 minute interval, vs DMSO): 1.26 mmol/L
- blood glucose concentration ([2]; 25 mg/kg BW intravenously, 90 minute interval): 5.07 ± 0.089 mmol/L and 5.07 ± 0.09 mmol/L
- blood glucose concentration ([2]; 25 mg/kg BW intravenously, 90 minute interval, listed as Metformin): 5.06 ± 0.089 mmol/L and 5.07 ± 0.089 mmol/L

- solubility in water (Solubility): not soluble in water
SMILES: CCCCCCCCCCCCCCCCCCCC [FR1DBE, eicosane]
- heart rate (rats [1]; [9]): 386 ± 7.91 beats/min
- systolic blood pressure (SBP) (rats [1]; [9]): 118.42±1.87 mmHg
- diastolic blood pressure (DBP) (rats [1]; [10]): 84.0±0.98 mmHg
- systolic blood pressure (SBP) (rats [1]; [10]): 122.21±1.1 mmHg
- effect on mean arterial blood pressure (in words) (rats [1]; 30 mg/kg BW): significantly reduced
- effect on systolic blood pressure (in words) (rats [1]; 30 mg/kg BW): significantly reduced
- blood insulin level (rats [4]; after 3½ hours of administration (210 minute interval)): 0.259 ± 0.03 µg/L
- blood insulin level (rats [4]; after the 90 minute interval): 0.214 ± 0.02 µg/L
- solubility in alcohol [5]: soluble in alcohol
- blood glucose concentration ([2]; 30 mg/kg BW intravenously, 60 minutes interval (fasting region)): 3.7 ± 0.154 mmol/L
- blood glucose concentration ([2]; 30 mg/kg BW intravenously, 90 minute interval (glycaemic peak), listed as fr1dbe): 4.71 ± 1.43 mmol/L

SMILES: CCCCCCCC/C=C\CCCCCCCC(=O)O [FR2DBS, oleic acid]
- diastolic blood pressure (DBP) (rats [1]; [9]): 93.42±1.74 mmHg
- heart rate (rats [1]; [9]): 389 ± 7.27 beats/min
- diastolic blood pressure (DBP) (rats [1]; [10]): 93.21±1.33 mmHg
- mean arterial pressure (MAP) (rats [1]; [11]): 100.43±1.39 mmHg
- effect on mean arterial blood pressure (in words) (rats [1]; 30 mg/kg BW): significant decrease
- effect on systolic blood pressure (in words) (rats [1]; 30 mg/kg BW): very low and comparable to the effect caused by captopril
- blood glucose concentration [2, 8]: 5.23 ± 0.14 mmol/L
- effect on blood glucose concentration (in words) [2]: significantly lower than the control
- Hypoglycaemic effect compared with control [2]: Significant
- effect on blood glucose level (in words) [3]: able to lower the blood glucose concentration
- effect on blood glucose level (in words) ([3]; listed as oleic acid): able to reduce the post-prandial glucose level

SMILES: C[C@H](CS)C(=O)N1CCC[C@H]1C(=O)O [captopril, reference compound]
- diastolic blood pressure (DBP) (rats [1]; [9]): 91.09±1.90 mmHg and 91±1.90 mmHg
- heart rate (rats [1]; [9]): 413 beats/min and 412 beats/min
- mean arterial pressure (MAP) (rats [1]; [9]): 110.86±1.71 mmHg
- systolic blood pressure (SBP) (rats [1]; [9]): 131.35±1.50 mmHg and 130.92±1.50 mmHg and 130.93±1.50 mmHg
- diastolic blood pressure (DBP) (rats [1]; [10]): 91.19±1.37 mmHg
- heart rate (rats [1]; [10]): 401.0±6.28 BPM
- diastolic blood pressure (DBP) (rats [1]; [11]): 93.30±1.58 mmHg
- mean arterial pressure (MAP) (rats [1]; [11]): 105.07±2.06 mmHg
- heart rate (rats [1]; 30 mg/kg BW, first 10 minutes): 399.93±6.91 BPM
